Laboratory results reported in patent EP2286808A1, “Cytohesin inhibitors” (Rheinische Friedrich-Wilhelms Universität, priority 2009, dated 2011).

Key:
[1] = target: T1, sec7-domains of cytohesin-2 (ARNO) (Homo sapiens, UniProt Q99418); test: guanine nucleotide exchange assay (GDP/GTP exchange on [Δ17]ARF1, tryptophan fluorescence); format: biochemical; conditions: for IC50: 250 nM [Δ17]ARF1, 10 nM ARNO-Sec7, 50 µM GTP, PBS pH 7.4, 37°C, read-out: IC50 value measured for the isolated Sec-7 domain of cytohesin-2; for inhibition of the sec7-domain of the isolated cytohesin-2 (relative exchange rate): 5µM amide compared with 5µM control SecinH3 (K), whose rate is set to 1, Fig. 1; for dual activity in cell adhesion and nucleotide exchange assays (summary in words): across nucleotide exchange and cell adhesion assays
T1 construct: ARNO-Sec7 (amino acids 50-255 of ARNO) were expressed in Escherichia coli; inferred from pET15 vector and Ni-NTA purification; made in house; host or cells: Escherichia coli
T1 sequence (Q99418 50-255): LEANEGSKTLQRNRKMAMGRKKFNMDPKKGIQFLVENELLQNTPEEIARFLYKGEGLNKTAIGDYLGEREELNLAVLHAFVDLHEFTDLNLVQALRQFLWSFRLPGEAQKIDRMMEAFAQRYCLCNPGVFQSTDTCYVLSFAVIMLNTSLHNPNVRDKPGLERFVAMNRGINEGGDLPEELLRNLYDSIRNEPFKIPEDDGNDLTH
Protocol: The inhibition of the exchange activity of the sec7-domains of cytohesin-2 (ARNO) of the amides according to formulas (5) to (30) was determined by a guanine nucleotide exchange assay.
For this purpose, the sec7-domains of cytohesin-2 (ARNO-Sec7) and [Δ17]ARF1, a mutant of the ADP-ribosylation factor (ARF) protein, were subcloned into pET15 vectors (Novagen) as described in Hafner, M. et al. Nature 444, 941-944 (2006). N-terminal truncated [Δ17]ARF1 (amino acids 18-181), lacking the first 17 amino acids and ARNO-Sec7 (amino acids 50-255 of ARNO) were expressed in Escherichia coli and purified by Ni-NTA chromatography (Ni-NTA agarose, Qiagen).
The exchange from […] (GDP) to guanidine-triphosphate (GTP) induces a conformation change of the ribosylation factor, as a result of which the fluorescence of a tryptophan radical of the protein is increased. GDP/GTP exchange was measured on [Δ17][…] by tryptophan fluorescence because a large increase in intrinsic fluorescence of ARF occurs upon exchange of GDP for GTP. All measurements were performed in PBS (137 mM NaCl, 2.7 mM KCl, 10.2 mM Na2HPO4, 1.8 mM KH2PO4) pH 7.4, 3 mM MgCl2 at 37°C.
[Δ17]ARF1 (1 µM) in PBS without MgCl2 was preincubated with 80 µM GDP in the presence of 2 mM ethylenediaminetetraacetic acid (EDTA) for 15 minutes. The bound GDP was stabilized by addition of MgCl2 at a final concentration of 3 mM and incubation for 5 minutes. For each exchange reaction 250 nM [Δ17]ARF1 was mixed with 10 nM ARNO-Sec7 (total volume 200 µl) in the absence or presence of inhibitoring amides according to formulas (5) to (30). The reaction was started by injection of 50 µM GTP.
The tryptophan fluorescence was measured at excitation and emission wavelength of 280 nm and 340 nm respectively. All fluorescent measurements were performed with a Varioskan microplate reader (Thermo Scientific), in 96-well plates. For analysis all data were fitted by linear regression.
The pan-active cytohesin inhibitor "SecinH3", a 1-, 2-, 4-substituted triazole according to formula (9) as disclosed in DE 10 2004 055 998 served as the control (K). The relative exchange rate of the control SecinH3 (K) was set to be 1.
The relative exchange rate was determined by comparing the initial linear rise of the fluorescence signal (exchange rate) in the presence of 5µM of the amides according to formulas (5) to (30) with the exchange rate in the presence of 5µM control SecinH3 (K), whereas the latter was set to be 1.
Further, the IC50 value inhibition of the sec7-domain of the isolated cytohesin-2 was determined. The IC50 value was be determined by plotting the initial linear rise of the fluorescence signal against the added concentrations of the amide. The IC50 value corresponds to the concentration of the amide at which the activity of the protein is reduced to half.

[2] = tested on: adhesion of the T cell line Jurkat E6 to an immobilized ICAM-1-Fc-fusion protein; test: cell adhesion assay, Jurkat E6 cells to immobilized ICAM-1-Fc-fusion protein; format: cell-based, human; conditions: 25 µM amide, OKT3 or PMA stimulation; 100% adhesion = 25 µM control SecinH3 (K); Fig. 3
Protocol: The ability of the amides according to formulas (5) to (30) to inhibit adhesion of the T cell line Jurkat E6 to an immobilized ICAM-1(Inter-Cellular Adhesion Molecule 1)-Fc-fusion protein was tested. On the T cell side, this interaction is exclusively mediated by the β-2 integrin LFA-1 that was enabled to bind to immobilized ICAM-1 through stimulation of Jurkat cells with an anti-TCR (T cell receptor) antibody or with the phorbol ester PMA (Phorbol 12-myristate 13-acetate). Cell adhesion to ICAM-Fc was carried out on 96-well dishes and was read out by fluorescence detection of total input versus bound cells which had been labeled with the DNA dye H33342.
Jurkat E6.1 cells were incubated in HBSS (Hank's BSS, PAA), 0.5% DMSO and, where indicated, 25 µM of the respective amide for one hour at 37°C, 5% CO2. After 30 minutes the cells were labeled with the fluorochrome bisbenzimide trihydrochloride H33342 (Sigma-Aldrich) at […] for 30 minutes at 37°C. 2 x 10^5 cells/ well were subsequently dispensed into a 96-well plate at 100µl/well. Prior to use plates were coated with 12µg/ml goat anti-human IgG for 90 minutes at 21°C, blocked with 1% BSA (Bovine serum albumin) in PBS overnight and incubated for 60 minutes with culture supernatants from CV-1 cells expressing an ICAM-1-Fc fusion protein.
Cells were either stimulated with 5 µg/ml purified anti CD3 antibody (OKT3, hybridome of ATCC, mAb OKT3 purified on protein A, according to standard methods from Current Protocols in Immunology, 5th Ed., Coligan et al., Edts, Wiley 2004) or with 50 ng/ml PMA, respectively. Cells were allowed to adhere to the ICAM-1-Fc coated dishes for 15 minutes and unbound cells were washed off with Hank's BSS (PAA). Adherent cells were read out using a fluorescence plate reader (Synergy-HT1, Biotek) at 485 nm in triplicates.
"100% adhesion" corresponds to the mean of OKT3 and PMA stimulated samples treated with 25 µM control control Secin H3 (K) as reference.

[3] = tested on: Drosophila insulin signaling (d4E-BP mRNA levels in Drosophila S2 cells); test: Drosophila insulin signaling assay, d4E-BP mRNA by quantitative RT-PCR; format: cell-based; conditions: 5 µg/ml insulin; for d4E-BP transcript levels: 10 µM amide for 18 hours, control SecinH3 (K) set to 1, Fig. 2
Protocol: In order to evaluate potential interference of the amides according to formulas (5) to (30) with Drosophila insulin signaling, S2 (Schneider 2 insect cell line, Invitrogen) cells were grown under starvation conditions and subsequently treated with insulin. This triggers a strong activation of the insulin signaling cascade resulting in the nuclear exclusion of the forkhead-box transcription factor dFOXO, which in turn down-regulates the expression of the transcriptional repressor d4E-BP (eIF4E-binding protein). […] This was measured by quantitative RT-PCR and compared to the effect of the control SecinH3 (K) in the same assay.
0.5 x 10^6 S2 cells were grown in 24-well dishes in medium (Schneiders Drosophila Medium, PAN Biotech) without FCS (heat-inactivated fetal calf serum) representing starvation condition. Six hours after seeding cells were treated for 18 hours with 10 µM of the respective amide according to formulas (5) to (30) or 10 µM SecinH3 (K) as reference. 22 hours after seeding cells were treated with 5 µg/ml insulin (Sigma). Controls were performed without amide and/or without insulin treatment. The amides were dissolved in dimethyl sulfoxide (DMSO). Final DMSO concentration in the cell culture medium was 0.5 %.
NucleoSpin 8 RNA Kit (Macherey-Nagel) was used for RNA preparation according to manufacturer's instructions. Genomic DNA digestion and first strand cDNA synthesis was carried out with 250 ng total RNA using QuantiTect Reverse Transkription Kit (Qiagen). Quantitative PCR was performed with the iQ5 Real-Time PCR detection system (Bio-Rad) and iQ SYBR Green Super Mix (Bio-Rad). Three reactions were done in parallel for each template. Real Time PCR was analysed using Bio-Rad iQ5 Optical System Software and Microsoft Excel.
The d4E-BP mRNA level after treatment of cells with the amides according to formulas (5) to (30) compared to the control SecinH3 is shown in Fig. 2. The d4E-BP mRNA level after treatment of cells with the control SecinH3 (K) was set to be 1.

CC(C)(C)c1ccc(C(=O)Nc2ccc(NC(=S)NC(=O)c3cccs3)cc2)cc1 [formula (6)] was tested, and the “potency in nucleotide exchange assay (summary in words)” value (from here on “potency in nucleotide exchange assay”) [1] was “potent inhibitors”, the IC50 [1] was 8 µM and the “inhibition of the sec7-domain of the isolated cytohesin-2 (relative exchange rate)” value (shortened to “inhibition … (relative exchange rate)”) [1] was “better than that of the control SecinH3 (K)”. The “inhibition of the adhesion of the Jurkat E6.1 cells to ICAM-1” value (shortened to “inhibition of the adhesion … to ICAM-1”) [2] was “better than that of the control (K)” and the d4E-BP transcript levels [3] was “increased”.

With COc1nc(-c2ccc3c(c2)OCO3)n(-c2ccc(NC(=O)CSc3ccccc3)cc2)n1 [SecinH3, reference compound] the IC50 [1] was 11.4 µM.

With CC(C)(C)c1ccc(C(=O)Nc2ccc(NC(=O)c3ccc4c(c3)OCO4)cc2)cc1 [formula (29)] the “dual activity in cell adhesion and nucleotide exchange assays (summary in words)” value [1] was “dual activity” and the “inhibition of the adhesion … to ICAM-1” value [2] was “better than that of the control (K)”.

C=CCn1c(SCC(=O)Nc2nsc(-c3ccccc3)n2)nc2scc(-c3ccccc3)c2c1=O [formula (20)] was tested, and the “dose-response behaviour of inhibition in nucleotide exchange assay” value [1] was “displayed a dose-response behaviour”, the “potency in nucleotide exchange assay” value [1] was “potent inhibitors” and the IC50 [1] was 2.1 µM. The “dual activity in cell adhesion and nucleotide exchange assays (summary in words)” value [1] was “dual activity” and the d4E-BP transcript levels [3] was “increased”.

For COc1ccc(-n2c(SCCC(=O)NC(N)=O)nnc2-c2ccc(C(C)(C)C)cc2)cc1Cl [formula (11)], the “inhibition … (relative exchange rate)” value [1] was “better than that of the control SecinH3 (K)”, the “dual activity in cell adhesion and nucleotide exchange assays (summary in words)” value [1] was “dual activity” and the “inhibition of the adhesion … to ICAM-1” value [2] was “better than that of the control (K)”.

In the case of CC(C)(C)c1ccc(C(=O)Nc2ccc(NC(=O)/C=C/c3ccco3)cc2)cc1 [formula (5)], the “dose-response behaviour of inhibition in nucleotide exchange assay” value [1] is reported as “displayed a dose-response behaviour”, the “potency in nucleotide exchange assay” value [1] is reported as “potent inhibitors” and the IC50 [1] is reported as 3.1 µM. For the same compound, the “inhibition … (relative exchange rate)” value [1] was “better than that of the control SecinH3 (K)”, the “inhibition of the adhesion … to ICAM-1” value [2] was “better than that of the control (K)” and the d4E-BP transcript levels [3] was “increased”. The “increase in dFOXO-dependent d4E-BP transcript levels compared to the reference (K)” value ([3]; 10 µM amide) was roughly 20 fold.

With COc1nc(-c2ccc(C)cc2)n(-c2ccc(NC(=O)/C=C/c3ccccc3)cc2)n1 [formula (7)] the “inhibition … (relative exchange rate)” value [1] was “better than that of the control SecinH3 (K)”.
